Type in all cases: in vivo
Experiment [1] relates to blackgrass (Aloepecurus myosuroides). Nature of the experiment: pre-emergence herbicidal activity, blackgrass. Particulars: Alopecurus myosuroides, 1 kg/Ha, about fourteen days, read-out: pre-emergence herbicidal activity (% control) ALOMY. The protocol:
(§1) This example sets forth the methods of herbicidal testing conducted on the specific compounds set forth below. Specifically, the compounds referenced below were tested for pre- and post-emergence herbicidal activity using a variety of crops and weeds. The test plants include, but are not limited to, soybean (Glycine max -- var. Winchester), field corn (Zea mays var. Pioneer 3732), wheat (Triticum aestivum var. Lew), morningglory (Ipomea lacunosa or Ipomea hederacea), velvetleaf (Abutilon theophrasti), green foxtail (Setaria viridis), Johnsongrass (Sorghum halepense), blackgrass (Aloepecurus myosuroides), common chickweed (Stellaria media), and common cocklebur (Xanthium strumarium L.).
(§2) In the post-emergence test, seeds of the plant species named above were planted in flats containing the appropriate soil mixture where they were maintained to allow the seeds to germinate. When the plants in these flats reached the proper stage of growth, flats for the pre-emergence tests were planted in a like manner. The flats containing the post-emergence and pre-emergence test plant species were then sprayed with an appropriately concentrated water/acetone solution of test compound. Once treated the flats were maintained, along with untreated controls, for about fourteen days. All treated plants were then examined for phytotoxicity, which was expressed as percent control where 0 is no effect and 100 is complete control. Effective rates of application for the compounds of the present invention range from 0.001 to 3 kg/ha, more likely from […] to 1 Kg/ha.
(§3) Herbicidal activity data at selected application rates are in Tables 4 and 5. The test compounds are identified by numbers correspond to those in Table 1.
(§4) Rate of application of test compound is 1 kg/Ha
(§5) SOY is soybean, WHT is wheat, CRN is corn, ABUTH is velvetleaf, IPOSS is
(§6) morningglory, STEME is chickweed, XANPE is cocklebur, ALOMY is blackgrass, […]

The test system of experiment [2] is Johnsongrass (Sorghum halepense). Nature of the experiment: pre-emergence herbicidal activity, johnsongrass. Particulars: 1 kg/Ha, about fourteen days, read-out: pre-emergence herbicidal activity (% control) SORHA. The method, then: as §1, §2, §3, §4, §5, §6
The test system of experiment [3] is field corn (Zea mays var. Pioneer 3732). Nature of the experiment: post-emergence herbicidal activity, corn. Particulars: 1 Kg/Ha, about fourteen days, read-out: post-emergence herbicidal activity (% control) CRN. The protocol: as §1, §2, §3, §5
(§7) morningglory, STEME is chickweed, XANPE is cocklebur, ALOMY is blackgrass,
(§8) Rate of application of test compound is 1 Kg/Ha. The definitions as shown under Table 4 apply to Table 5.

Experiment [4] concerns common cocklebur (Xanthium strumarium L.). Description: post-emergence herbicidal activity, cocklebur. The conditions noted are these: 1 Kg/Ha, about fourteen days, read-out: post-emergence herbicidal activity (% control) XANPE. The protocol: as §1, §2, §3, §5, §7, §8
Experiment [5] has as its system common chickweed (Stellaria media). Description: pre-emergence herbicidal activity, chickweed. The conditions noted are these: 1 kg/Ha, about fourteen days, read-out: pre-emergence herbicidal activity (% control) STEME. The method, then:
as §1, §2, §3, §4, §5, §6

Experiment [6] has as its system soybean (Glycine max -- var. Winchester). Nature of the experiment: post-emergence herbicidal activity, soybean. Particulars: 1 Kg/Ha, about fourteen days, read-out: post-emergence herbicidal activity (% control) SOY. The protocol:
as §1, §2, §3, §5, §7, §8

Experiment [7] concerns field corn (Zea mays var. Pioneer 3732). Description: pre-emergence herbicidal activity, corn. The conditions noted are these: 1 kg/Ha, about fourteen days, read-out: pre-emergence herbicidal activity (% control) CRN. The protocol: as §1, §2, §3, §4, §5, §6
Experiment [8] has as its system morningglory (Ipomea lacunosa or Ipomea hederacea). Description: pre-emergence herbicidal activity, morningglory. The conditions noted are these: Ipomoea, 1 kg/Ha, about fourteen days, read-out: pre-emergence herbicidal activity (% control) IPOSS. The protocol: as §1, §2, §3, §4, §5, §6
For experiment [9], the system named is wheat (Triticum aestivum var. Lew). Nature of the experiment: post-emergence herbicidal activity, wheat. Particulars: 1 Kg/Ha, about fourteen days, read-out: post-emergence herbicidal activity (% control) WHT. The method, then:
as §1, §2, §3, §5, §7, §8

Experiment [10] concerns velvetleaf (Abutilon theophrasti). Nature of the experiment: pre-emergence herbicidal activity, velvetleaf. The conditions noted are these: 1 kg/Ha, about fourteen days, read-out: pre-emergence herbicidal activity (% control) ABUTH. The method, then:
as §1, §2, §3, §4, §5, §6

Experiment [11] shares this test system. Nature of the experiment: post-emergence herbicidal activity, velvetleaf. Particulars: 1 Kg/Ha, about fourteen days, read-out: post-emergence herbicidal activity (% control) ABUTH. The method, then:
as §1, §2, §3, §5, §7, §8

Experiment [12] concerns green foxtail (Setaria viridis). Nature of the experiment: post-emergence herbicidal activity, green foxtail. Particulars: 1 Kg/Ha, about fourteen days, read-out: post-emergence herbicidal activity (% control) SETVI. The method, then: as §1, §2, §3, §5, §7, §8
Experiment [13] shares this test system. Nature of the experiment: pre-emergence herbicidal activity, green foxtail. The conditions noted are these: 1 kg/Ha, about fourteen days, read-out: pre-emergence herbicidal activity (% control) SETVI. The protocol: as §1, §2, §3, §4, §5, §6
Experiment [14] relates to wheat (Triticum aestivum var. Lew). Nature of the experiment: pre-emergence herbicidal activity, wheat. Particulars: 1 kg/Ha, about fourteen days, read-out: pre-emergence herbicidal activity (% control) WHT. The protocol:
as §1, §2, §3, §4, §5, §6

The subject of experiment [15] is Johnsongrass (Sorghum halepense). Description: post-emergence herbicidal activity, johnsongrass. Particulars: 1 Kg/Ha, about fourteen days, read-out: post-emergence herbicidal activity (% control) SORHA. The protocol: as §1, §2, §3, §5, §7, §8
In experiment [16] the test system is soybean (Glycine max -- var. Winchester). Description: pre-emergence herbicidal activity, soybean. Particulars: 1 kg/Ha, about fourteen days, read-out: pre-emergence herbicidal activity (% control) SOY. The method, then:
as §1, §2, §3, §4, §5, §6

In experiment [17] the test system is common cocklebur (Xanthium strumarium L.). Description: pre-emergence herbicidal activity, cocklebur. Particulars: 1 kg/Ha, about fourteen days, read-out: pre-emergence herbicidal activity (% control) XANPE. The protocol:
as §1, §2, §3, §4, §5, §6

Experiment [18] concerns morningglory (Ipomea lacunosa or Ipomea hederacea). Description: post-emergence herbicidal activity, morningglory. Particulars: Ipomoea, 1 Kg/Ha, about fourteen days, read-out: post-emergence herbicidal activity (% control) IPOSS. The protocol:
as §1, §2, §3, §5, §7, §8

The test system of experiment [19] is common chickweed (Stellaria media). Description: post-emergence herbicidal activity, chickweed. Particulars: 1 Kg/Ha, about fourteen days, read-out: post-emergence herbicidal activity (% control) STEME. The protocol: as §1, §2, §3, §5, §7, §8

We go through seven molecules from patent publication US6277847A, “Herbicidal isoindolinonyl-and 3,4-dihydroisoquinolonyl-substituted heterocycles” (FMC Corporation, priority 2000, dated 2001).

Each structure is given as a SMILES string.

With `Cn1c(C(F)(F)F)cc(=O)n(-c2ccc(Cl)c3c2CNC3=O)c1=O` [Compound 12], the activity at 1000 g/ha in experiment [1] stood at 100%; in [2], 100%; in experiment [3], 70%; in [4], 95%; in experiment [5], 100%; in [6], 95%. In addition, the activity at 1000 g/ha in [7] was found to be 100%; in experiment [8], 100%; in experiment [9], 70%; in [10], 100%; in [11], 100%; in experiment [12], 100%. The activity at 1000 g/ha in [13] was 100%; in experiment [14], 100%; in experiment [15], 60%; in [16], 100%; in [17], 100%; in experiment [18], 75%.

With `CCCN1Cc2c(-n3c(=O)cc(C(F)(F)F)n(C)c3=O)ccc(Cl)c2C1=O` [Compound 13], the activity at 1000 g/ha in experiment [1] was 100%; in experiment [2], 100%; in experiment [3], 100%; in experiment [4], 95%; in [5], 100%; in experiment [6] it was 100%. For the same molecule, the activity at 1000 g/ha in [7], in [8], in experiment [9], in experiment [10], in experiment [11] and in experiment [12] was 100% in each case. Moreover, the activity at 1000 g/ha in [13], in [14], in experiment [15], in experiment [16], in experiment [17] and in experiment [18] was 100% each time.

With `Cn1c(C(F)(F)F)cc(=O)n(-c2ccc(Cl)c3c2CN(C(C)(C)C)C3=O)c1=O` [Compound 14, 3-[7-chloro-2-(1,1-dimethylethyl)isoindolin-1-on-4-yl]-1-methyl-6-trifluoromethyl-2,4(1H,3H)-pyrimidinedione], the activity at 1000 g/ha in experiment [1] turned out to be 100%; in experiment [2], 100%; in experiment [3], 80%; in [4], 100%; in experiment [5], 100%; in experiment [6], 100%. Further, the activity at 1000 g/ha in [7], in experiment [8], in experiment [9], in experiment [10], in [11] and in [12] was 100% each time. Besides, the activity at 1000 g/ha in [13] stood at 100%; in experiment [14], 100%; in experiment [15], 100%; in experiment [16], 100%; in experiment [17], 100%; in experiment [18] it was 90%.

As for `Cn1c(C(F)(F)F)cc(=O)n(-c2c(Cl)cc(Cl)c3c2CNC3=O)c1=O` [Compound 15], the activity at 1000 g/ha in experiment [1] amounted to 100%; in experiment [2], 100%; in experiment [3], 60%; in experiment [4], 60%; in experiment [5], 60%; in experiment [6], 70%. Besides, the activity at 1000 g/ha in [7] was determined as 95%; in [8], 100%; in experiment [9] it was 50%; in [10], 100%; in experiment [11], 100%; in [12], 60%. Further, the activity at 1000 g/ha in [13] was 100%; in experiment [14] it was 95%; in [15], 40%; in experiment [16], 100%; in [17] it was 100%; in experiment [18], 100%.

As to `Cn1c(C(F)(F)F)cc(=O)n(-c2c(Cl)cc(Cl)c3c2CN(O)C3=O)c1=O` [Compound 16], the activity at 1000 g/ha was determined as 60% in [1]; 100% in [2]; 40% in [3]; 30% in [4]; 5% in experiment [5]; 60% in [6]. For the same molecule, the activity at 1000 g/ha in [7] is 90%; in experiment [8], 65%; in [9] it was 20%; in experiment [10], 100%; in experiment [11], 50%; in experiment [12], 30%. In addition, the activity at 1000 g/ha was found to be 100% in experiment [13]; 70% in experiment [14]; 30% in [15]; 50% in [16]; 80% in experiment [17]; 20% in experiment [18].

Turning to `CCON1Cc2c(-n3c(=O)cc(C(F)(F)F)n(C)c3=O)ccc(Cl)c2C1=O` [Compound 19], the activity at 1000 g/ha in [2], in experiment [19], in [3], in experiment [4], in [5] and in [6] was 100% throughout. In addition, the activity at 1000 g/ha in [7], in [8], in experiment [9], in experiment [10], in experiment [11] and in [12] was 100% each time. The activity at 1000 g/ha in experiment [13], in [14], in [15], in [16], in [17] and in experiment [18] was 100% throughout.

For the molecule `C=CCN1Cc2c(-n3c(=O)cc(C(F)(F)F)n(C)c3=O)ccc(Cl)c2C1=O` [Compound 20], the activity at 1000 g/ha in experiment [2], in experiment [19], in [3], in [4], in experiment [5] and in [6] was 100% each time. The activity at 1000 g/ha in experiment [7], in [8], in experiment [9], in experiment [10], in [11] and in experiment [12] was 100% throughout. The activity at 1000 g/ha in experiment [13], in experiment [14], in experiment [15], in experiment [16], in experiment [17] and in [18] was 100% each time.
